ChEMBL document CHEMBL5380873, “Discovery of Potent Tetrazole Free Fatty Acid Receptor 2 Antagonists” (J Med Chem, 2023)
One block for each molecule: values may come before it. Calls of active or inactive are those of the source. The calls are words filed in the database; no cut-off is given here.

Experiments:
[1] = Chemical stability of compound in PBS buffer at pH 7.4 measured after 10 days by HPLC analysis; assay type: physicochemical; settings: time 10 day, read-out: Stability
[2] = target: T1, Free fatty acid receptor 3 (Homo sapiens) (UniProt O14843); assay: Antagonist activity at human FFA3 expressed in Flp-In-T-REx-293 cells co-expressing eYFP assessed as inhibition of propionate-induced cAMP accumulation at 10 uM preincubated with compound for 20 mins followed by propionate addition and measured after 25 mins in the presence of forskolin by TR-FRET analysis; assay type: functional, cell-based; settings: time 45.0 min
T1 sequence (whole entry): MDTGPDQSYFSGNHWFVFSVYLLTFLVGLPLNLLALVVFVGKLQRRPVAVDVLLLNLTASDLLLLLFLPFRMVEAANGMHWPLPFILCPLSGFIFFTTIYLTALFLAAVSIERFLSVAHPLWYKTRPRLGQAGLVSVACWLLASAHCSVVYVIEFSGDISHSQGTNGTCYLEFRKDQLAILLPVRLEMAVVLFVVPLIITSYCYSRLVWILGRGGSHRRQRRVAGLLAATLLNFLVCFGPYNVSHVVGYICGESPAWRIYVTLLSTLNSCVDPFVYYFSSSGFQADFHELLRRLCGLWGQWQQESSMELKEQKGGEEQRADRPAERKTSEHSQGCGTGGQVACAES

Neutrophil [3] = assay: Inhibition of propionate-induced cell migration in human peripheral neutrophil at 0.4 to 1 uM preincubated with compound for 30 mins followed by propionate addition and measured after 1 hrs by ATPlite luminescence assay; assay type: functional, cell-based; settings: dose 0.4-1 µM, time 90.0 min
Neutrophil [4] = assay: (§1) Inhibition of propionate-induced respiratory burst in human peripheral neutrophil assessed as effect on luminol-induced chemiluminescence at 0.4 to 1 uM preincubated with compound for 30 mins followed by propionate addition and measured immediately by microplate reader based analysis; assay type: functional, cell-based; settings: dose 0.4-1 µM
Neutrophil [5] = assay: Inhibition of fMLP-induced cell migration in human peripheral neutrophil at 10 uM; assay type: functional, cell-based
Neutrophil [6] = assay: Inhibition of fMLP-induced respiratory burst in human peripheral neutrophil at 10 uM; assay type: functional, cell-based
[7] = as §1, with “luminol-amplifies” for “luminol-induced”, “chemiluminescence by measuring fold change” for “chemiluminescence”, “analysis relative to CATPB” for “analysis”; assay type: functional; settings: dose 0.4-1 µM, 0.5 h
[8] = target: T2, Free fatty acid receptor 2 (Homo sapiens, UniProt O15552); assay: (§2) Antagonist activity at human FFA2 expressed in Flp-In-T-REx-293 cells co-expressing eYFP assessed as inhibition of [35S]GTPgammaS incorporation preincubated for 15 mins followed by [35S]GTPgammaS addition and measured after 60 min by liquid scintillation spectroscopic analysis; assay type: functional, cell-based
T2 sequence (O15552 whole entry): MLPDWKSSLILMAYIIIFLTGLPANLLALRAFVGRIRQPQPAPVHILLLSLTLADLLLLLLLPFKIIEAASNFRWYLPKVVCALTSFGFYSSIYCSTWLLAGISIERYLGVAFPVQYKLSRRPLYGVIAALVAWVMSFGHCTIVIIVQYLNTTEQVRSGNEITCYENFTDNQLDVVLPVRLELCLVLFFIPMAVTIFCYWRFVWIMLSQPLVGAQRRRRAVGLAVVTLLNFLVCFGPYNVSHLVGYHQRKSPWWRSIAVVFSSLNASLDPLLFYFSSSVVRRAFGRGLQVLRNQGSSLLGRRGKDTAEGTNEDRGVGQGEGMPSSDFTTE

[9] = target: T2, Free fatty acid receptor 2; assay: (§3) Antagonist activity at human FFA2 expressed in Flp-In-T-REx-293 cells co-expressing eYFP assessed as inhibition of propionate-induced cAMP accumulation preincubated with compound for 20 mins followed by propionate addition and measured after 25 mins in the presence of forskolin by TR-FRET analysis; assay type: functional, cell-based
[10] = target: T3, Free fatty acid receptor 2 (Homo sapiens) (UniProt O15552); assay: as §2; assay type: functional, cell-based; settings: time 75.0 min
T3 sequence (whole entry): T2 sequence (O15552 whole entry)

[11] = target: T3, Free fatty acid receptor 2 (Homo sapiens); assay: as §3; assay type: functional, cell-based; settings: time 45.0 min
[12] = target: T3, Free fatty acid receptor 2 (Homo sapiens); assay: Potency index, ratio of CATPB pIC50 to test compound pIC50 for antagonist activity at human FFA2
[13] = target: T2, Free fatty acid receptor 2; assay: Inverse agonist activity at human GPR43 expressed in Glosensor cells assessed as increase in forskolin-induced cAMP level preincubated with compound for 5 mins followed by forskolin addition and measured after 15 mins by luminescence based analysis; assay type: functional, cell-based

Compound: COc1cccc(CC(=O)N[C@@H](Cc2ccc(C(F)(F)F)cc2)Cc2nnn[nH]2)c1
remaining at 240 h [1]: > 95%
Activity [2]: inactive
inhibition (Neutrophil [3]): Active
inhibition (Neutrophil [4]): Active
inhibition (Neutrophil [5]): inactive
inhibition (Neutrophil [6]): inactive
fold change (FC) [7]: 8

Compound: N#Cc1cccc(CC(=O)N[C@@H](Cc2ccc(C(F)(F)F)cc2)Cc2nnn[nH]2)c1
pIC50 [8]: > 5
pIC50 [9]: > 5

Compound: O=C(Cc1cccc(-c2nnn[nH]2)c1)N[C@@H](Cc1ccc(C(F)(F)F)cc1)Cc1nnn[nH]1
Activity [10]: inactive
Activity [11]: inactive

Compound: O=C(Cc1cncc(Br)c1)N[C@@H](Cc1ccc(C(F)(F)F)cc1)Cc1nnn[nH]1
remaining at 240 h [1]: > 95%

Other lines, results leading:

Activity [10]: inactive
Activity [11]: inactive
Compound: O=C(Cc1cnc[nH]1)N[C@@H](Cc1ccc(C(F)(F)F)cc1)Cc1nnn[nH]1

Ratio pIC50 [12]: > 10
Compound: Cc1cccc(CC(=O)N[C@@H](Cc2ccc(C(F)(F)F)cc2)Cc2nnn[nH]2)c1

IC50 [13]: ~10 µM
Compound: CC1=C(C(=O)Nc2cc(C)cc(C)c2)C(c2ccc(N(C)C)cc2)NC(=O)N1 (stereo unspecified)
